{"source": "paper PMC11364104", "about": "“Discovery of SARS-CoV-2 papain-like protease (PL^pro) inhibitors with efficacy in a murine infection model” (Science Advances, 2024)", "key": {"[1]": {"experiment": "In vitro genetic toxicity (bacterial reverse mutation assay)", "details": "in vitro genetic toxicity studies; listed as PF-07957472"}, "Rat pharmacokinetics": {"experiment": "Rat pharmacokinetics", "assay_type": "in vivo, Wistar-Hannover rat", "details": "for Vd: rat, iv, 1 mg/kg, read-out: Vdss", "method": "Figure S1. Setting Up the Collaboration Workflow and Operations\nPreclinical Pharmacokinetics Studies\nAll activities involving animals were carried out in accordance with federal, state, local and institutional guidelines governing the use of laboratory animals in research in AAALAC accredited facilities and were reviewed and approved by Pfizer’s or Bioduro’s Institutional Animal Care and Use committee.\nMouse pharmacokinetic studies were done at BioDuro Pharmaceutical Product Development Inc. (Shanghai, PRC); male C57BL6 mice were purchased from Vital River (Beijing, China) and were typically 7-9 weeks of age at the time of dosing. During the pharmacokinetic studies all animals were housed individually. Access to food and water was provided ad libitum (i.e., subjects were dosed in the fed state). Compounds were administered intravenously (iv) via tail vein (n=2) dosed as a solution (1 mg/kg, 3 mL/kg) or via oral gavage as a solution (10 mg/kg, 3 mL/kg and 30 mg/kg, 3mL/kg) or as a suspension (15 mg/kg, 10 mL/kg; 50 mg/kg, 10 mL/kg; and 150 mg/kg, 10mL/kg). Dosing solutions were prepared immediately before dosing. The composition of each dosing vehicle is provided in Tables S5 and S6. Isoflurane was administered as anesthesia at 1-2% dose prior to collecting blood samples. Serial blood samples were collected via the retroorbital capillary at predetermined timepoints after dosing. Animals were monitored for pain or distress throughout the study, with at least daily monitoring during normal husbandry prior to study start. At the completion of the study, animals were euthanized by overdose of inhaled carbon dioxide. Blood samples were collected into tubes containing K2EDTA and stored on ice until centrifugation to obtain plasma, which was stored frozen at - 20 °C or lower until bioanalysis.\nRat pharmacokinetic studies were done at BioDuro Pharmaceutical Product Development Inc. (Shanghai, PRC); jugular vein- cannulated male Wistar-Hannover rats were purchased\n(1 picture or pasted object on this page, not shown here) […]\nfrom Vital River (Beijing, China) and were typically 7-9 weeks of age at the time of dosing.\nDuring the pharmacokinetic studies all animals were housed individually. Access to food and water was provided ad libitum (i.e., subjects were dosed in the fed state). In the instances where oral (po) dose was administered in the fed state, with ad libitum access to food and water. Compounds were administered intravenously (iv) via the tail vein (n = 2) dosed as a solution (1 mg/kg, 3 ml/kg) or via oral gavage as a solution (10 mg/kg, 10 ml/kg). Dosing solutions were prepared immediately before dosing. The composition of each dosing vehicle […]\nSerial blood samples were collected via the jugular vein cannula at […]\ncentrifugation to obtain plasma, which was stored frozen at - 20 °C or lower.\nDog pharmacokinetic studies were done at Pfizer (Groton, CT). All procedures performed on beagle dogs were in accordance with regulations and established guidelines and were reviewed and approved by an Institutional Animal Care and Use Committee through an ethical review process. Male Beagle dogs were purchased from Marshall Bioresources (North Rose, NY); subjects 3 years of age were used in pharmacokinetics studies. For each study (n=2), compounds were dosed iv by cephalic vein as a solution (0.5 mg/kg, 1 mL/kg) or via oral gavage as a suspension (3 mg/kg, 5 mL/kg). In the instances where oral (po) dose was administered in the fed state, dogs were fed a couple hours before dosing. In the instances where the IV dose was administered in the fasted state, dogs were fasted over night and fed 4 hours post dose. Subjects were monitored for pain or distress throughout the study followed by at least daily monitoring while off study. The iv dosing vehicle was optimized such that the compounds were in solution and stable for at least 24 h. Serial blood samples were collected via the jugular vein at predefined time points post-dose. Blood […]"}, "CYP2C9": {"biological_target": "CYP2C9 (Homo sapiens, UniProt P11712)", "sequence (P11712 whole entry)": "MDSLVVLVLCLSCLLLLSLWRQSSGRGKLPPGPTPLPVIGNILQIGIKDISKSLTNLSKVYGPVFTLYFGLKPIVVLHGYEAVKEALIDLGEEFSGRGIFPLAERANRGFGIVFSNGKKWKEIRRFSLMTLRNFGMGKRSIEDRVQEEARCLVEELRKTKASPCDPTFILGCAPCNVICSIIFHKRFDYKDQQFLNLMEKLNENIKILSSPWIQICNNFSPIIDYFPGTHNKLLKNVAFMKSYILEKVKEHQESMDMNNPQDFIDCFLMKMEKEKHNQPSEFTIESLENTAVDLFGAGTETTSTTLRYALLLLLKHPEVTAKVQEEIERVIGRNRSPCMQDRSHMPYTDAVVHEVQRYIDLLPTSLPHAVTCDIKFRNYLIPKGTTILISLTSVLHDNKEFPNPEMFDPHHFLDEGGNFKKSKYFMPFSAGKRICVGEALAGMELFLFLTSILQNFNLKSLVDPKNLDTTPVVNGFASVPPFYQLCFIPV", "experiment": "biochemical"}, "Human Cathepsin V": {"biological_target": "T1, Human Cathepsin V (Homo sapiens, UniProt O60911)", "T1 construct": "assay run at Reaction Biology Corporation", "T1 sequence (O60911 114-334)": "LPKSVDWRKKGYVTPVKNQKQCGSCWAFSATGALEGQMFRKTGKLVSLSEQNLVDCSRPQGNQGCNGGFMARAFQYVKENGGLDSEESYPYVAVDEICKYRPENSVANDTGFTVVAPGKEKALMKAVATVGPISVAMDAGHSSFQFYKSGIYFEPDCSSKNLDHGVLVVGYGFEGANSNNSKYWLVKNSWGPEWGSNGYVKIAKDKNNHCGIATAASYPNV", "experiment": "biochemical"}, "P38 MAP Kinase": {"biological_target": "T2, P38 MAP Kinase (Homo sapiens, UniProt Q16539)", "T2 construct": "purchased Eurofins Cerep", "T2 sequence (Q16539 whole entry)": "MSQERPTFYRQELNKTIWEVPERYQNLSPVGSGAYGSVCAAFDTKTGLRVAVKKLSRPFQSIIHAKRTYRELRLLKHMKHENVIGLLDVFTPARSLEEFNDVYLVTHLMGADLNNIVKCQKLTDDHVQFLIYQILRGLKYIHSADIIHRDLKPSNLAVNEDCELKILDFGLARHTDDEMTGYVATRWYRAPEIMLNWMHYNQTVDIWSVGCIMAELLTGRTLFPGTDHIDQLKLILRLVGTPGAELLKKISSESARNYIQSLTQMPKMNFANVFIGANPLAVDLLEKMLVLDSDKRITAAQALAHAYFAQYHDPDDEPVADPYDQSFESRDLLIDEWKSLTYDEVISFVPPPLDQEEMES", "experiment": "CEREP kinase inhibition", "assay_type": "biochemical"}, "Human Caspase 2": {"biological_target": "T3, Human Caspase 2 (Homo sapiens, UniProt P42575)", "T3 construct": "assay run at Reaction Biology Corporation", "T3 sequence (P42575 170-325 limits assumed)": "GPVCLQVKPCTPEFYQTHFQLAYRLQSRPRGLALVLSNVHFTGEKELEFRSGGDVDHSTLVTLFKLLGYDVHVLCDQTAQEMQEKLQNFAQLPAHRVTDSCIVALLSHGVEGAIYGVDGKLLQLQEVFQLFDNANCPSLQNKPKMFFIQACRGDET", "T3 sequence (P42575 348-452 limits assumed)": "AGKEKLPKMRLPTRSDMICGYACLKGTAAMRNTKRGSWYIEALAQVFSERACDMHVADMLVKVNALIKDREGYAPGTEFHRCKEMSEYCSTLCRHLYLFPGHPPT", "experiment": "biochemical"}, "[2]": {"details": "Wistar-Hannover, plasma, Male Wistar Hanover Rat, 1.0 mg/kg iv, solution, mean n=2"}, "[3]": {"details": "Wistar-Hannover, plasma, Male Wistar Hanover Rat, 10 mg/kg po, solution, mean n=2"}}, "note": "Read-outs that look alike come from different tables or passages of the source.", "data": [{"smiles": "Cc1ccc(N2CCN(C)CC2)cc1C(=O)NC1(c2cc(-c3cnn(C)c3)nc3ccccc23)CC1", "note": "[Compound 4]", "values": [{"measurement": "In vitro genotoxicity screen", "setting": "[1]", "result": "not mutagenic or clastogenic"}, {"measurement": "Oral F", "setting": "Rat pharmacokinetics; Male Wistar Hanover Rat, 10 mg/kg po, solution, mean n=2", "result": 69.7, "unit": "%"}, {"measurement": "AUC(0-inf)", "setting": "Rat pharmacokinetics; [2]", "result": 668, "unit": "ng·h/mL"}, {"measurement": "half-life", "setting": "Rat pharmacokinetics; [2]", "result": 3.59, "unit": "h"}, {"measurement": "clearance", "setting": "Rat pharmacokinetics; Wistar-Hannover, plasma, Male Wistar Hanover Rat, 1.0 mg/kg iv, solution, mean n=2, read-out: CLp", "result": 25.2, "unit": "mL/min/kg"}, {"measurement": "AUC(0-inf)", "setting": "Rat pharmacokinetics; [3]", "result": 4650, "unit": "ng·h/mL"}, {"measurement": "Cmax", "setting": "Rat pharmacokinetics; [3]", "result": 435, "unit": "ng/mL"}, {"measurement": "Tmax", "setting": "Rat pharmacokinetics; [3]", "result": 3, "unit": "h"}, {"measurement": "half-life", "setting": "Rat pharmacokinetics; [3]", "result": 3.19, "unit": "h"}, {"measurement": "bioavailability", "setting": "Rat pharmacokinetics; male, Wistar-Hannover, plasma, po, 10 mg/kg, rat (r), read-out: Oral F (%)", "result": 69.7, "unit": "%"}, {"measurement": "Vd", "setting": "Rat pharmacokinetics; male, Wistar-Hannover, plasma, Male Wistar Hanover Rat, 1.0 mg/kg iv, solution, mean n=2", "result": 4.42, "unit": "L/kg"}, {"measurement": "Vd", "setting": "Rat pharmacokinetics; male, Wistar-Hannover, plasma, rat (r), intravenous", "result": 4.4, "unit": "L/kg"}, {"measurement": "IC50", "setting": "CYP2C9", "result": "> 30", "unit": "µM"}, {"measurement": "IC50", "setting": "Human Cathepsin V", "result": "> 100", "unit": "µM"}, {"measurement": "inhibition at 30 µM", "setting": "P38 MAP Kinase", "result": 10, "unit": "%"}, {"measurement": "IC50", "setting": "Human Caspase 2", "result": "> 100", "unit": "µM"}]}]}
